Measured values taken from patent US7696149B2, “Pharmaceutical administration form for peptides, process for its preparation, and use” (AEterna Zentaris GmbH, priority 2000, dated 2010).
“And” between values parts separate entries of the source, which are not always exact repeats. Identical values can stand only once. “Also recorded” adds a separate entry of the source. Non-standard residues stand in square brackets, D forms with d. Residues, ends and D or L forms follow the SMILES beside them. dPhe(4-Cl) = N[C@H](Cc1ccc(Cl)cc1)C(=O)O; d2Nal = N[C@H](Cc1ccc2ccccc2c1)C(=O)O; dCit = NC(=O)NCCC[C@@H](N)C(=O)O; d3Pal = N[C@H](Cc1cccnc1)C(=O)O

Assays:
[1] = Polarization microscopy: aggregation of cetrorelix solutions (days without aggregation); type: physicochemical
Protocol: By means of polarization microscopy, aggregation investigations were carried out on solutions of various cetrorelix salts without or with addition of excipients.
In the polarization light microscope with crossed polarizers, aggregated peptide solutions show images which are very similar to those of liquid-crystalline structures. In contrast to this, aggregate-free peptide solutions produce no such effects.
(§1) After reconstitution of these lyophilizates, the solutions ([…]) are investgated in the following tests for aggregate formation and release behaviour: • Polarization microscopy (pol. mic.): days without aggregation. • Filterability in %: • Cetrorelix solutions are prepared according to a standardized procedure and filtered through 0.22 μm or 0.45 μm filters by means of centrifugation. The concentration of cetrorelix in the filtrate is determined by HPLC and indicated as a % value, based on the starting concentration before filtration (filterability in %). • in-vitro release form (RRS, release in Ringer's solution): • % released after 1 h and after 6 h. • The in-vitro release behaviour is determined at 37° C. in a flow procedure using Ringer's solution as medium. The concentration measurement is carried out by HPLC. Cetrorelix samples, corresponding to 10 mg of cetrorelix base, are weighed into the flow cell, mixed with 4 ml of water and stirred for 10 min.

[2] = Rat animal experiment: cetrorelix residual content in the muscle 168 h after injection; type: in vivo; settings: for Cetrorelix content in the muscle (168 h), % of the dose: rat
Protocol: After reconstitution of these lyophilizates, the solutions (2.5 mg/ml of cetrorelix) are investgated in the following tests for aggregate formation and release behaviour: • Polarization microscopy (pol. mic.): days without aggregation. • Filterability in %: • Cetrorelix solutions are prepared according to a standardized procedure and filtered through 0.22 μm or 0.45 μm filters by means of centrifugation. The concentration of cetrorelix in the filtrate is determined by HPLC and indicated as a % value, based on the starting concentration before filtration (filterability in %). • in-vitro release form (RRS, release in Ringer's solution): • % released after 1 h and after 6 h. • The in-vitro release behaviour is determined at 37° C. in a flow procedure using Ringer's solution as medium. The concentration measurement is carried out by HPLC. Cetrorelix samples, corresponding to 10 mg of cetrorelix base, are weighed into the flow cell, mixed with 4 ml of water and stirred for 10 min.
(§2) In the further rat muscle experiments shown in Table 9, in addition to the residual content in the muscle, the cetrorelix content in the plasma was additionally determined.

[3] = In-vitro release in Ringer's solution (RRS), flow procedure at 37° C.; type: physicochemical
Protocol: as §1

[4] = Rat muscle experiment: cetrorelix content in the plasma; type: in vivo
From the text: as §2

[5] = Optical appearance of cetrorelix acetate solutions with excipients; type: physicochemical
[6] = Cremophor ® EL 5.00%, cetrorelix 2.5 mg/ml
[7] = Cremophor ® EL 10.00%, cetrorelix 2.5 mg/ml
[8] = Cremophor ® EL 20.00%, cetrorelix 2.5 mg/ml
[9] = Cremophor ® EL 20.00%, cetrorelix 5 mg/ml
[10] = Galacturonic acid 2.50%, cetrorelix 2.5 mg/ml, pH 2.6
[11] = Glucaric acid 2.50%, cetrorelix 2.5 mg/ml, pH 2.5
[12] = L-glutamic acid 0.80%, cetrorelix 2.5 mg/ml, pH 3.8
[13] = Solutol ® HS 15 5.00%, cetrorelix 2.5 mg/ml
[14] = Solutol ® HS 15 10.00%, cetrorelix 2.5 mg/ml
[15] = Solutol ® HS 15 20.00%, cetrorelix 2.5 mg/ml
[16] = cetrorelix 2.5 mg/ml, Kollidon 0%
[17] = cetrorelix 2.5 mg/ml, Kollidon 5%
[18] = cetrorelix 2.5 mg/ml, Kollidon 10%
[19] = cetrorelix 2.5 mg/ml, Kollidon 15%
[20] = cetrorelix 2.5 mg/ml, Kollidon 20%
[21] = cetrorelix 5 mg/ml, Kollidon 15%
[22] = cetrorelix 5 mg/ml, Kollidon 20%
[23] = conc. of cetrorelix from lyo 2.5 mg/ml
[24] = conc. of cetrorelix from lyo 5 mg/ml
[25] = dose 1.5 mg/kg, inj. soln 3 mg/ml, listed as Acetate
[26] = dose 3.0 mg/kg, inj. soln 15 mg/ml

CC(=O)N[C@H](Cc1ccc2ccccc2c1)C(=O)N[C@H](Cc1ccc(Cl)cc1)C(=O)N[C@H](Cc1cccnc1)C(=O)N[C@@H](CO)C(=O)N[C@@H](Cc1ccc(O)cc1)C(=O)N[C@H](CCCNC(N)=O)C(=O)N[C@@H](CC(C)C)C(=O)N[C@@H](CCCNC(=N)N)C(=O)N1CCC[C@H]1C(=O)N[C@H](C)C(N)=O [cetrorelix acetate] (Ac-[d2Nal][dPhe(4-Cl)][d3Pal]SY[dCit]LRP[dA]-NH2)
Days without aggregation ([1]; 2.5 mg/ml cetrorelix acetate, gluconic acid in reconstitution medium 0%, pH 4.7): 1 days | Days without aggregation ([1]; 2.5 mg/ml cetrorelix acetate, gluconic acid in reconstitution medium 0.0071%, pH 4.5): 2 days | Days without aggregation ([1]; 2.5 mg/ml cetrorelix acetate, gluconic acid in reconstitution medium 0.071%, pH 3.7): 2 days | Days without aggregation ([1]; 2.5 mg/ml cetrorelix acetate, gluconic acid in reconstitution medium 0.71%, pH 3.1): 12 days | Aggregation (microscopy): yes, after ... days [1, 6]: 10 days | Aggregation (microscopy): days without aggregation [1, 7]: ≧112 days | Aggregation (microscopy): days without aggregation [1, 8]: ≧112 days | Aggregation (microscopy): yes, after ... day [1, 9]: yes, after 1 day | Aggregation (microscopy): days without aggregation [1, 10]: ≧12 days | Aggregation (microscopy): days without aggregation [1, 11]: ≧12 days | Aggregation (microscopy): yes, after ... days [1, 12]: yes, after 2 days | Aggregation (microscopy): yes, after ... days [1, 13]: 14 days | Aggregation (microscopy): days without aggregation [1, 14]: ≧112 days | Aggregation (microscopy): days without aggregation [1, 15]: ≧112 days | Days without aggregation ([1]; acetate salt, cetrorelix 2.5 mg/ml, glucuronic acid addition: no, pH 4.7): 0 days | Days without aggregation ([1]; acetate salt, cetrorelix 2.5 mg/ml, glucuronic acid addition: yes, pH 3.0): >21 days | Days without aggregation ([1]; acetate salt, cetrorelix 5 mg/ml, glucuronic acid addition: yes, pH 3.0): 0 days | Days without aggregation with Kollidon ® 12 PF [1, 16]: 0 days | Days without aggregation with Kollidon ® 17 PF [1, 16]: 0 days | Days without aggregation with Kollidon ® 12 PF [1, 17]: 1 days | Days without aggregation with Kollidon ® 17 PF [1, 17]: 2 days | Days without aggregation with Kollidon ® 12 PF [1, 18]: 1 days | Days without aggregation with Kollidon ® 17 PF [1, 18]: 2 days | Days without aggregation with Kollidon ® 12 PF [1, 19]: 77 days | Days without aggregation with Kollidon ® 17 PF [1, 19]: 63 days | Days without aggregation with Kollidon ® 12 PF [1, 20]: 84 days | Days without aggregation with Kollidon ® 17 PF [1, 20]: 98 days | Days without aggregation with Kollidon ® 12 PF [1, 21]: 0 days | Days without aggregation with Kollidon ® 17 PF [1, 21]: 1 days | Days without aggregation with Kollidon ® 12 PF [1, 22]: 0 days | Days without aggregation with Kollidon ® 17 PF [1, 22]: 1 days | Aggregation-free duration ([1]; cetrorelix acetate 2.5 mg/ml, 10% of α-cyclodextrin): 7 days | Aggregation-free duration ([1]; cetrorelix acetate 2.5 mg/ml, 20% of hydroxypropyl-β-cyclodextrin): 24 days | Aggregation-free duration ([1]; cetrorelix acetate 5 mg/ml, 10% of α-cyclodextrin): 0 days | Aggregation-free duration ([1]; cetrorelix acetate 5 mg/ml, 20% of hydroxypropyl-β-cyclodextrin): 7 days | Aggregation-free duration ([1]; cetrorelix acetate 7.5 mg/ml, 10% of α-cyclodextrin): 0 days | Aggregation-free duration ([1]; cetrorelix acetate 7.5 mg/ml, 20% of hydroxypropyl-β-cyclodextrin): 10 days | Aggregation-free duration ([1]; cetrorelix acetate 10 mg/ml, 10% of α-cyclodextrin): 0 days | Aggregation-free duration ([1]; cetrorelix acetate 10 mg/ml, 20% of hydroxypropyl-β-cyclodextrin): 2 days | Aggregation-free duration ([1]; cetrorelix acetate 15 mg/ml, 20% of hydroxypropyl-β-cyclodextrin): 0 days | Aggregation-free duration ([1]; cetrorelix acetate 15 mg/ml, 20% of γ-cyclodextrin): 0 days | Pol. mic days without aggr. [1, 23]: 0 days | Pol. mic days without aggr. [1, 24]: 0 days | Cetrorelix content in the muscle (168 h), % of the dose [2, 25]: 55.1 % of the dose | Cetrorelix content in the muscle (168 h), % of the dose [2, 26]: 56.5 % of the dose | Rat % i.m. after 168 h ([2]; residual content in the muscle, % of dose, conc. of cetrorelix 2.5 mg/ml): ~55% | RRS, [%] after 1 h [3, 23]: 12% and 13% | RRS, [%] after 6 h [3, 23]: 24.5% and 35.9% | RRS, [%] after 1 h [3, 24]: 10% | RRS, [%] after 6 h [3, 24]: 35% | Cetrorelix content in the plasma, % of the dose [4, 25]: 92.2 % of the dose | Cetrorelix content in the plasma, % of the dose [4, 26]: 28.7 % of the dose | Appearance [5, 6]: clear | Appearance [5, 7]: clear | Appearance [5, 8]: clear | Appearance [5, 9]: clear,; also recorded: viscose | Appearance [5, 10]: clear | Appearance [5, 11]: clear | Appearance [5, 12]: clear | Appearance [5, 13]: clear | Appearance [5, 14]: clear | Appearance [5, 15]: clear
